Measurements from article PMC7051184, “C9orf72 arginine-rich dipeptide repeat proteins disrupt karyopherin-mediated nuclear import” (eLife, 2020).

What was measured:
Format in all cases: biochemical, human
[1] = tested on: Rps25; assay: DPR aggregation assay and western blot, Rps25; conditions: Fig 5-suppl 3C, normalized to untreated HEK on same membrane;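 also: RNA rows contain added 20 µg total HEK RNA while no-RNA rows lack it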
Source text: Supplement elife-51685-fig5-data1.xlsx, sheet "Figure 5-figure suppl 3" | column: Rps25

[2] = tested on: importin α; assay: DPR aggregation assay and western blot, ImpA; conditions: Fig 5-suppl 3C, normalized to untreated HEK on same membrane;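 also: RNA rows contain added 20 µg total HEK RNA while no-RNA rows lack it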
Protocol: (§1) Supernatant and pellet fractions (for all 5 DPRs, and control/buffer only) were prepared as in the nuclear transport assays, by adding 100 µM 10mers to 2.5 mg/ml HEK lysate in 100 µL TRB. Supernatants were boiled in Laemmli (BioRad) for 5 min. Pellets were boiled for 15 min followed by sonication in order to fully disperse aggregates for SDS-PAGE. Equal volumes of supernatant and pellet fractions were run on 4–12% Bolt Bis-Tris Plus gels (ThermoFisher), transferred to nitrocellulose membrane using an iBlot2 dry blotting system (ThermoFisher). Protein loading was analyzed by BLOT-Faststain (G-biosciences, St. Louis, MO), according to the manufacterers’ instructions. For immunodetection, membranes were blocked with 5% non-fat milk in TBST and probed by sequential incubation with the primary antibodies as detailed in the table below. Detection was by HRP-conjugated secondary antibodies/chemiluminescence using an ImageQuant LAS 4000 system (GE, Chicago, IL). To permit sequential probing of membranes without stripping, signals were quenched by incubation with prewarmed 30% H20_2 for 20 min ([Sennepin et al., 2009]). Band intensities were measured by ImageQuant software. For pellet vs. supernatant fractions, all were expressed as percent untreated control. For blots in Figure 1E, samples were run on 4–20% SDS PAGE minigels (ThermoFisher) and blotted to PVDF membranes (Immun-Blot PVDF, Bio-Rad) using the Bio-Rad TransBlot Turbo apparatus, and probed as above. The chemiluminescence signal was captured with a Bio-Rad ChemiDoc XRS+ digital imaging system.

[3] = tested on: importin β; assay: DPR aggregation assay and western blot, ImpB; conditions: Fig 5-suppl 3C, normalized to untreated HEK on same membrane;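 also: RNA rows contain added 20 µg total HEK RNA while no-RNA rows lack it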
Protocol: as §1

[4] = tested on: RPS6; assay: DPR aggregation assay and western blot, RPS6; conditions: Fig 5-suppl 3C, normalized to untreated HEK on same membrane;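 also: RNA rows contain added 20 µg total HEK RNA while no-RNA rows lack it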
Protocol: as §1

[5] = tested on: TDP-43; assay: DPR aggregation assay and western blot, TDP-43; conditions: Fig 5-suppl 3C, normalized to untreated HEK on same membrane
Protocol: as §1

[6] = tested on: RanGAP1; assay: DPR aggregation assay and western blot, RanGAP1; conditions: Fig 5-suppl 3C, normalized to untreated HEK on same membrane
Protocol: as §1

[7] = tested on: Ran; assay: DPR aggregation assay and western blot, Ran; conditions: Fig 5-suppl 3C, normalized to untreated HEK on same membrane;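 also: RNA rows contain added 20 µg total HEK RNA while no-RNA rows lack it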
Protocol: as §1

[8] = DPR aggregate formation in HEK lysate (pellet vs. supernatant, total protein); conditions: transport assay lysate
Protocol: as §1, with “For blots in Figure 1E, samples were run on 4–20% SDS PAGE minigels (ThermoFisher) and blotted to PVDF membranes (Immun-Blot PVDF, Bio-Rad) using the Bio-Rad TransBlot Turbo apparatus, and probed as above. The chemiluminescence signal was captured with a Bio-Rad ChemiDoc XRS+ digital imaging system.” left out

[9] = Pellet, no RNA (Untreated), blot 1
[10] = Pellet, no RNA (Untreated), blot 2
[11] = Supernatant, no RNA (Untreated), blot 1
[12] = Supernatant, no RNA (Untreated), blot 2

For “GA10: Synthetic 10-mer GA dipeptide repeat with C-terminal lysine and cysteine (GAGAGAGAGAGAGAGAGAGAKC)”, which “Rps25 band density, % untr control” value ([1]; Pellet, RNA, blot 1) is on record?
Its value is 48.52%.

And the “Rps25 band density, % untr control” value ([1]; Pellet, RNA, blot 2)?
Its value is 61.57%.

What about the “Rps25 band density, % untr control” value [1, 9] of the same substance?
The value was 84.83%.

What about the “Rps25 band density, % untr control” value [1, 10] of the same substance?
The value was 128.35%.

And the “Rps25 band density, % untr control” value ([1]; Supernatant, RNA, blot 1)?
The value was 121.04%.

What about the “Rps25 band density, % untr control” value ([1]; Supernatant, RNA, blot 2) of the same substance?
Its value is 82.85%.

And the “Rps25 band density, % untr control” value [1, 11]?
Its value is 112.04%.

And the “Rps25 band density, % untr control” value [1, 12]?
Its value is 76.84%.

What about the “ImpA band density, % untr control” value ([2]; Pellet, RNA, blot 1) of the same substance?
The value was 93.99%.

What about the “ImpA band density, % untr control” value ([2]; Pellet, RNA, blot 2) of the same substance?
Its value is 102.25%.

What about the “ImpA band density, % untr control” value [2, 9] of the same substance?
Its value is 106.73%.

And the “ImpA band density, % untr control” value [2, 10]?
The value was 98.70%.

And the “ImpA band density, % untr control” value ([2]; Supernatant, RNA, blot 1)?
Its value is 83.82%.

And the “ImpA band density, % untr control” value ([2]; Supernatant, RNA, blot 2)?
Its value is 115.58%.

What about the “ImpA band density, % untr control” value [2, 11] of the same substance?
The value was 82.83%.

And the “ImpA band density, % untr control” value [2, 12]?
The value was 108.20%.

And the “ImpB band density, % untr control” value ([3]; Pellet, RNA, blot 1)?
The value was 90.07%.

And the “ImpB band density, % untr control” value ([3]; Pellet, RNA, blot 2)?
The value was 91.42%.

What about the “ImpB band density, % untr control” value [3, 9] of the same substance?
The value was 90.15%.

What about the “ImpB band density, % untr control” value [3, 10] of the same substance?
The value was 102.12%.

What about the “ImpB band density, % untr control” value ([3]; Supernatant, RNA, blot 1) of the same substance?
The value was 78.71%.

And the “ImpB band density, % untr control” value ([3]; Supernatant, RNA, blot 2)?
Its value is 123.36%.

And the “ImpB band density, % untr control” value [3, 11]?
The value was 89.10%.

And the “ImpB band density, % untr control” value [3, 12]?
Its value is 114.58%.

And the “Rps6 band density, % untr control” value ([4]; Pellet, RNA, blot 1)?
The value was 45.85%.

And the “Rps6 band density, % untr control” value ([4]; Pellet, RNA, blot 2)?
The value was 60.48%.

And the “Rps6 band density, % untr control” value [4, 9]?
The value was 113.52%.

And the “Rps6 band density, % untr control” value [4, 10]?
Its value is 119.87%.

And the “Rps6 band density, % untr control” value ([4]; Supernatant, RNA, blot 1)?
The value was 64.65%.

And the “Rps6 band density, % untr control” value ([4]; Supernatant, RNA, blot 2)?
The value was 73.01%.

And the “Rps6 band density, % untr control” value [4, 11]?
The value was 90.06%.

What about the “Rps6 band density, % untr control” value [4, 12] of the same substance?
The value was 67.32%.

What about the “TDP43 band density, % untr control” value ([5]; Pellet, RNA, blot 1) of the same substance?
Its value is 112.48%.

What about the “TDP43 band density, % untr control” value ([5]; Pellet, RNA, blot 2) of the same substance?
The value was 99.51%.

What about the “TDP43 band density, % untr control” value [5, 9] of the same substance?
The value was 116.61%.

What about the “TDP43 band density, % untr control” value [5, 10] of the same substance?
Its value is 120.53%.

What about the “TDP43 band density, % untr control” value ([5]; Supernatant, RNA, blot 1) of the same substance?
Its value is 88.02%.

What about the “TDP43 band density, % untr control” value ([5]; Supernatant, RNA, blot 2) of the same substance?
Its value is 100.78%.

And the “TDP43 band density, % untr control” value [5, 11]?
Its value is 86.33%.

What about the “TDP43 band density, % untr control” value [5, 12] of the same substance?
Its value is 98.73%.

What about the “RanGAP1 band density, % untr control” value ([6]; Pellet, RNA, blot 1) of the same substance?
The value was 93.93%.

And the “RanGAP1 band density, % untr control” value ([6]; Pellet, RNA, blot 2)?
The value was 89.10%.

What about the “RanGAP1 band density, % untr control” value [6, 9] of the same substance?
Its value is 87.31%.

And the “RanGAP1 band density, % untr control” value [6, 10]?
The value was 80.44%.

And the “RanGAP1 band density, % untr control” value ([6]; Supernatant, RNA, blot 1)?
The value was 83.26%.

And the “RanGAP1 band density, % untr control” value ([6]; Supernatant, RNA, blot 2)?
Its value is 119.18%.

What about the “RanGAP1 band density, % untr control” value [6, 11] of the same substance?
The value was 131.44%.

And the “RanGAP1 band density, % untr control” value [6, 12]?
The value was 105.30%.

And the “Ran band density, % untr control” value ([7]; Pellet, RNA, blot 1)?
The value was 129.05%.

And the “Ran band density, % untr control” value ([7]; Pellet, RNA, blot 2)?
Its value is 192.76%.

What about the “Ran band density, % untr control” value [7, 9] of the same substance?
Its value is 79.12%.

What about the “Ran band density, % untr control” value [7, 10] of the same substance?
The value was 116.78%.

And the “Ran band density, % untr control” value ([7]; Supernatant, RNA, blot 1)?
The value was 116.22%.

And the “Ran band density, % untr control” value ([7]; Supernatant, RNA, blot 2)?
Its value is 99.76%.

And the “Ran band density, % untr control” value [7, 11]?
The value was 117.84%.

And the “Ran band density, % untr control” value [7, 12]?
Its value is 105.67%.

What about the “Aggregate formation in cell lysate” value [8] of the same substance?
Its value is “did not observe GA-induced aggregate formation”.
